Results on four compounds are retold here after US20250092383A1, “COMPOUNDS AND METHODS FOR FBXO22-MEDIATED PROTEIN DEGRADATION” (Northwestern University, priority 2023, published 2025).

The structures appear in SMILES notation. Peptide text beside a SMILES is read from it. * marks the point of attachment. Cbz = O=C(OCc1ccccc1)*

Assay type in all cases: cell-based
Test [1] addresses T1, BRD4 (Homo sapiens, UniProt O60885).
T1 construct: endogenous in cells; host or cells: A549 wild type and FBXO22 knockout
Description: BRD4 degradation in A549 wild-type and FBXO22-knockout cells (western blot). The note with it: 1 and 2 μM, 24 h. An excerpt:
(§1) FIGS. 5A-5E show harnessing FBXO22 for the degradation of BRD4 and EML4-ALK. […] The bar graph represents quantification of the BRD4/β-actin protein content. Data are presented as the mean values (n=2 biological independent samples). […] Data are presented as the mean values (n=2 biological independent samples). […] The bar graph represents quantification of the EML4-ALK/β-actin protein content. Data are presented as the mean values (n=2 biological independent samples).
(§2) Next, the potential of FBXO22 to facilitate the degradation of additional proteins was investigated. Bromodomain-containing protein 4 (BRD4) was chosen due to its notable physiological role and the availability of a selective ligand, JQ1. The compound, 22-JQ1 (3) was synthesized by coupling the FBXO22 binding moiety to JQ1 (FIG. 5a). […] Subsequently, a global proteomic analysis was performed in A549 wild-type and FBXO22-knockout cells treated with 22-JQ1. […] 22-TAE incorporates the FBXO22 binding moiety coupled with a defined anaplastic lymphoma kinase (ALK) ligand (FIG. 5d). FBXO22 knockout was generated in H2228, a non-small cell lung cancer cell line expressing the echinoderm microtubule-associated protein-like 4 (EML4)-ALK fusion protein.
(In western blotting, separated proteins are transferred to a membrane and probed.)

In test [2] the target is T1, BRD4. Description: Global proteomic analysis in A549 wild-type and FBXO22-knockout cells treated with 22-JQ1. The note with it: 2 μM, 24 h.
Text: as §1, §2

Test [3] has as its target T2, EML4-ALK fusion protein (Homo sapiens, UniProt Q8NEZ5+Q9HC35+Q9UM73).
T2 construct: endogenous in cells; host or cells: H2228 wild type and FBXO22 knockout
Description: EML4-ALK degradation in H2228 wild-type and FBXO22-knockout cells. The note with it: 1 and 2 μM, 24 h.
Text: as §1, §2

The target in test [4] is T3, FKBP12 (mouse FBXO22) (UniProt P62942+Q78JE5).
T3 construct: expressed in transfected cells; host or cells: HEK293T
T3 sequence (P62942 2-108): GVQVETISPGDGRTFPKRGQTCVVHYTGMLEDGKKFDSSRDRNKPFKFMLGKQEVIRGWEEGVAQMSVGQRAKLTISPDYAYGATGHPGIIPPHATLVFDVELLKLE
T3 sequence (Q78JE5 whole entry): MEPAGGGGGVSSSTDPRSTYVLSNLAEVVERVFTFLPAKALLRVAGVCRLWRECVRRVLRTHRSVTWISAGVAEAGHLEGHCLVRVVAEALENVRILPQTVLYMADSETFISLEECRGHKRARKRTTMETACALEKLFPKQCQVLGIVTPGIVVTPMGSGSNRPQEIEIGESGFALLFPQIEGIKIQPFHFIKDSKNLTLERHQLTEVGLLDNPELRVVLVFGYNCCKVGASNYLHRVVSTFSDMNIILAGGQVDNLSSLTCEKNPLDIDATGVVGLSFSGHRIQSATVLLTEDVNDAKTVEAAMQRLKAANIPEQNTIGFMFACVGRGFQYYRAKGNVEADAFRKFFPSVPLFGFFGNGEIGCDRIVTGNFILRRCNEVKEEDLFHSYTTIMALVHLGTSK
T3 sequence (P63208 whole entry partner): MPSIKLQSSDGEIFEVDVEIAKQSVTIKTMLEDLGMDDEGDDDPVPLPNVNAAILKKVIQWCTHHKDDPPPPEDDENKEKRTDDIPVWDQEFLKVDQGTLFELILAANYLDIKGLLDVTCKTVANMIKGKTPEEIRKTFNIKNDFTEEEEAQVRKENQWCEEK
The test is described as follows: FKBP12 degradation in HEK293T cells expressing mouse FBXO22. The settings on record: HEK293T cells expressing mouse FBXO22 wildtype. The source says:
(§3) FIGS. 3A-3H show FBXO22 C227 and C228 are involved in 22-SLF-mediated degradation of FKBP12. […] Among 5,650 quantified IA-DTB-modified peptides, four cysteines were identified on FBXO22 (C83, C117, C228, and C365). […] Data are presented as the mean values (n=2 biological independent samples for DMSO treatment; n=3 biological independent samples for 22-SLF Treatment). […] The bag graph represents quantification of the FLAG-FKBP12/HSP90 protein content. Data are presented as mean values (n=2 biological independent samples). […] The bar graph represents quantification of the FLAG-FKBP12/HSP90 protein content. Data are presented as the mean values (n=2 biological independent samples).
Intriguingly, the peptide sequence containing the two consecutive cysteines (C227 and C228) is identical between human and mouse (FIG. 3f). To explore whether mouse FBXO22 can facilitate 22-SLF-induced FKBP12 degradation and if the conserved cysteines (C226 and C227 in mouse FBXO22) are pivotal, HEK293T cells expressing mouse FBXO22 wildtype, C226A, C227A, and C226AC227A, were generated.

The target in test [5] is FKBP12 (Homo sapiens, UniProt P62942). Description: Western blot of FLAG-FKBP12 degradation in HEK293T cells expressing HA-FBXO22. Further details: expressed in transfected cells; host or cells: HEK293T. The note with it: MG132 (1 μM), MLN4924 (1 μM), SLF (25 μM). As for the experimental part: The bar graph represents quantification of the FLAG-FKBP12/HSP90 protein content. Data are presented as the mean values±s.e.m. […] HEK293T cells expressing HA-FBXO22 were treated with 0.025-15 μM 22-SLF for 8 h. The graph represents quantification of the FLAG-FKBP12/HSP90 protein content. Data are presented as the mean values (n=2 biological independent samples). […] The bar graph represents quantification of the FLAG-FKBP12/HSP90 protein content. KO, knockout; WT, wild type. Data are presented as the mean values (n=2 biological independent samples). […] The bar graph represents quantification of the FLAG-FKBP12/HSP90 protein content. Data are presented as the mean values±s.e.m. […] The result is representative of two independent experiments with similar results. WCL, whole-cell lysate; IP, immunoprecipitate.
Sequence of FKBP12 (P62942 whole entry): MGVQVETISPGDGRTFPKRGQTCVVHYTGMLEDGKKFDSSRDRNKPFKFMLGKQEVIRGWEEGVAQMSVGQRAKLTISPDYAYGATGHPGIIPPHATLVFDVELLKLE
as §3
FIG. 11A-11B show the acrylamide variant of 22-SLF, 22a-SLF, induced the degradation of FKBP12. […] HEK293T cells expressing HA-FBXO22 were treated with 0.5, 1, or 2 μM of 22-SLF or 22a-SLF for 8 hours. The graph represents quantification of the FLAG-FKBP12/HSP90 protein content. Data are presented as mean values (n=2 biological independent samples).
Next, Western blot analysis was used to measure the degradation of FKBP12 induced by 22-SLF. To achieve this, FLAG-tagged FKBP12 and HA-tagged FBXO22 were stably overexpressed in HEK293T cells, followed by subjecting the cells to varying concentrations of 22-SLF. […] Moreover, 22-SLF's effect on FLAG-FKBP12 degradation was concentration-dependent (FIG. 2a). […] The rescue enabled by MLN4924 indicates the involvement of a Cullin-RING ligase (CRL) in the degradation process. This is consistent with FBXO22 belonging to SKP1-CUL1-F-box protein (SCF) ubiquitin ligase complexes, a subfamily of CRL. […] To provide a more comprehensive insight into 22-SLF-induced FKBP12 degradation, a dose-dependent degradation experiment using 11 concentrations of 22-SLF ranging from […] to 15 μM was conducted. This experiment enabled determination of two parameters, the Dmax value, which reached 89%, and the half-maximal degradation concentration (DC50) value, which measured at 0.5 μM (FIG. 2B). […] Collectively, this array of data supports the canonical mechanism of ligand-induced protein degradation. In this mechanism, 22-SLF orchestrates the recruitment of FBXO22 to FKBP12, culminating in the proteasomal degradation of FKBP12.
To identify the cysteine residue(s) in FBXO22 engaged with 22-SLF, HA-FBXO22-expressing HEK293T cells were treated with either DMSO or 22-SLF (2 μM, 2 hours). Using competitive cysteine-directed activity-based protein profiling (ABPP), a chemical proteomics for the measurement of target engagement, the degree of blockade of iodoacetamide-desthiobiotin (IA-DTB)-modified cysteines on FBXO22 was quantified. From a pool of 5,650 quantified IA-DTB-modified peptides, four cysteines on FBXO22 (C83, C117, C228, and C365) (FIG. 3a) were identified, with approximately 20% of FBXO22 C228 being blocked by 22-SLF treatment (FIG. 3b), indicating the potential interaction with this cysteine by 22-SLF. Consequently, C228 was mutated to alanine and HA-FBXO22 C228A-expressing HEK293T cells were generated (FIG. 3c). […]

T2 sequence (Q9HC35+Q9UM73 fused): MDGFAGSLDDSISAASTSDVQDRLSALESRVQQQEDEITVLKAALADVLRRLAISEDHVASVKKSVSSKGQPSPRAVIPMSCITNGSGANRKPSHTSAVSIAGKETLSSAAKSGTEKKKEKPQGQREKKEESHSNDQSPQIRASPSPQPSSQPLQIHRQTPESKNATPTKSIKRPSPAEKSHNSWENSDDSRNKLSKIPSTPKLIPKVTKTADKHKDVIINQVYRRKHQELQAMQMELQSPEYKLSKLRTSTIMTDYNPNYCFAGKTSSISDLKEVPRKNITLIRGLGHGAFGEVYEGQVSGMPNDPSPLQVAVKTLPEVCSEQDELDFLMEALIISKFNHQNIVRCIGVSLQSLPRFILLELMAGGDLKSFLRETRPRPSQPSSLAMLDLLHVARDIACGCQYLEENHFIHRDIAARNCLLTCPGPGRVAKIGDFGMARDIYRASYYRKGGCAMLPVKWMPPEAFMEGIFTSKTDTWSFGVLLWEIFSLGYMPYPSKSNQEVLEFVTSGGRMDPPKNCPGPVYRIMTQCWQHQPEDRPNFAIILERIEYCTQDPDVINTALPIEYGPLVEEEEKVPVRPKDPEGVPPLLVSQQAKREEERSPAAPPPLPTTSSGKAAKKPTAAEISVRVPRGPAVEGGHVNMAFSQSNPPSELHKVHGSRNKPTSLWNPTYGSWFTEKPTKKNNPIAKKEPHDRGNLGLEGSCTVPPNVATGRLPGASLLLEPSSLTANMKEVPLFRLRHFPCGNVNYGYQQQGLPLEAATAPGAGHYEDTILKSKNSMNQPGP
T2 sequence (Q8NEZ5 whole entry, the tested form may be a part): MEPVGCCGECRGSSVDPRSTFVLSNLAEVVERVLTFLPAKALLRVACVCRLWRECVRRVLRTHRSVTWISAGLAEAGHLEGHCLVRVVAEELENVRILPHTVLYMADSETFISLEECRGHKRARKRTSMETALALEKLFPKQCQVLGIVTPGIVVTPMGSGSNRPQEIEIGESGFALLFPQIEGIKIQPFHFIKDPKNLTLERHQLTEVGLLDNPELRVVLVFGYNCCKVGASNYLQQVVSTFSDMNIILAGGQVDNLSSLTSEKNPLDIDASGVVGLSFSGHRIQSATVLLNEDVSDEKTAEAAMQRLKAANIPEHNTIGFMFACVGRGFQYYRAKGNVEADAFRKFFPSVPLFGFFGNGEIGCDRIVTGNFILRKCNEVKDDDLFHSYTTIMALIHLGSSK
T2 sequence (P63208 2-163 partner limits assumed): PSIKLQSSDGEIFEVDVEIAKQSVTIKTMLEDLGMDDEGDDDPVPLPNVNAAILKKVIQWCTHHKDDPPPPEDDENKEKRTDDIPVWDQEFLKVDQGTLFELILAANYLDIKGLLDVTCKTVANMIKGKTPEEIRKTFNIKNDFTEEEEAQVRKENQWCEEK
T2 sequence (Q13616 whole entry partner, the tested form may be a part): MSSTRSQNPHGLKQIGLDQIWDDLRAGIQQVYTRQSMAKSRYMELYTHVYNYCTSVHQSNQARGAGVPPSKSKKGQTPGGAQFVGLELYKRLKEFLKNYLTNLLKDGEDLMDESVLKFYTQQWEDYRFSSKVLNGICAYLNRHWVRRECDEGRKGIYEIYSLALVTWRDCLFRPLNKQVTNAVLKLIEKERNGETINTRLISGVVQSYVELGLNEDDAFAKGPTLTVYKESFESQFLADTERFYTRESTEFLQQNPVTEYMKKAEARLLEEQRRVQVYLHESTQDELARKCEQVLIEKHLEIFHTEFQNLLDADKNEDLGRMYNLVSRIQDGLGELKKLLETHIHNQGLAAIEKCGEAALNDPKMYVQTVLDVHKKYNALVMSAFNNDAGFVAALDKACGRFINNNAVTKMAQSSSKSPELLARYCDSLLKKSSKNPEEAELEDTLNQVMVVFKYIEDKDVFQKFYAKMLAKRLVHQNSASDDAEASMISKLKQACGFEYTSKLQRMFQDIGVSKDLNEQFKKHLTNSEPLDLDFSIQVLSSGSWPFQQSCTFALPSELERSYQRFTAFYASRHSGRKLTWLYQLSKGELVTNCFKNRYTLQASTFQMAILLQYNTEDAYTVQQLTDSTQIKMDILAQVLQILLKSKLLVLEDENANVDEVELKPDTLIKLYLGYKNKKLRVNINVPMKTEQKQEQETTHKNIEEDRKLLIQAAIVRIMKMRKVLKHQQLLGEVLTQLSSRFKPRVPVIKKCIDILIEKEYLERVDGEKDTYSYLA
T2 sequence (P62877 whole entry partner, the tested form may be a part): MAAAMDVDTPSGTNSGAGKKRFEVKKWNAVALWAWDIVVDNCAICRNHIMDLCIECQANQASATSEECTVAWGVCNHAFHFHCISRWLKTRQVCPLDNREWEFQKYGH

Consider `Cc1sc2c(c1C)C(c1ccc(Cl)cc1)=N[C@@H](CC(=O)NCCCOCCOCCOCCCN(C(=O)CCl)C(C(=O)NCc1ccccc1)c1nc3ccccc3s1)c1nnc(C)n1-2` (stereo partly drawn) [22-JQ1], for which, in test [1], the “BRD4 degradation, A549 FBXO22 knockout cells” value is “abolished upon FBXO22 knockout” and the “BRD4 degradation, A549 wild-type cells” value was “promoted the degradation of BRD4”. Besides, the “BRD4 degradation in global proteomics” value in test [2] is listed as “potent degradation of BRD4 in A549 wild-type but not FBXO22-knockout cells”.

Turning to `COc1cc(N2CCN(CCOCCOCCN(C(=O)CCl)C(C(=O)NCc3ccccc3)c3nc4ccccc4s3)CC2)ccc1Nc1ncc(Cl)c(Nc2ccccc2S(=O)(=O)C(C)C)n1` (stereo not drawn) [22-TAE], in test [3], the “EML4-ALK degradation, FBXO22-knockout H2228 cells” value is “no such degradation was observed” and the “EML4-ALK degradation, H2228 wild-type cells” value is reported as “induced the degradation of EML4-ALK fusion protein”.

For `CC(C)C[C@@H](C=O)NC(=O)[C@H](CC(C)C)NC(=O)[C@H](CC(C)C)NC(=O)OCc1ccccc1` [MG132, reference compound] (Cbz-Leu-Leu-Leu-aldehyde), the “Blockade of 22-SLF-induced FKBP12 degradation, mouse FBXO22” value in test [4] is reported as “blocked”. In addition, the “Blockade of 22-SLF-induced loss of FLAG-FKBP12 expression” value in test [5] is “blocked”.

As to `NS(=O)(=O)OC[C@@H]1C[C@@H](n2ccc3c(N[C@H]4CCc5ccccc54)ncnc32)C[C@@H]1O` [MLN4924, reference compound], the “Blockade of 22-SLF-induced FKBP12 degradation, mouse FBXO22” value in test [4] is recorded as “blocked”. In addition, the “Blockade of 22-SLF-induced loss of FLAG-FKBP12 expression” value in test [5] is “blocked”.
